“Also recorded” adds a separate entry of the source.
Key:
male rats (Slc:Wistar) [1] = experiment: Crossing test: conception rate of copulated animals (Example 2); format: in vivo, rat
Method: Forty 10 week-old male rats (Slc:Wistar) and forty 9 week-old female rats were obtained, quarantined for 7 days, and were habituated and bred for 13 days. δ-amino levulinic acid (herein after referred to as ALA) phosphate was weighed, dissolved into injection solvent to prepare a 50 mg/mL solution.
After day 15 from administration of Example 1, crossing period was set as 14 days, and 1 female was housed per 1 male in the control group and in the 500 mg/kg-group.

male rats (Slc:Wistar) [2] = experiment: Organ weights at autopsy of male rats after repeated oral administration (Example 1); settings: 500 mg/kg oral once a day, compared to the control group, FIG. 1
[3] = test system: healthy volunteers, married men; experiment: Subjective estimation of erectile effect in healthy volunteers (Example 3); format: in vivo, human
Method: 1 g of ALA hydrochloride was dissolved into 50 mL of 5% glucose aqueous solution (test solution), and administered to 7 healthy volunteers, married men from 28 to 44 years old. They ingested orally the test solution (13.9 to 22.2 mg/kg) without taking breakfast.

[4] = 1 g oral in 5% glucose solution (13.9 to 22.2 mg/kg), one line per volunteer 1-7, hydrochloride

SMILES | conception succeeded (number of rats) (male rats (Slc:Wistar) [1]; 500 mg/kg-group, control 16 out of 20) | conception rate of copulated animals (male rats (Slc:Wistar) [1]; male rats 500 mg/kg oral once a day, crossing period 14 days after day 15, control group 80.0%) | net weight of seminal vesicle (male rats (Slc:Wistar) [2]) | weight volume ratio to the body weight of seminal vesicle (male rats (Slc:Wistar) [2]) | Note (sexual intercourse, pregnancy) [3, 4] | Result (erectile, individual subjective estimation) [3, 4] | volunteers in whom erectile was observed on that night ([3]; 1 g oral, 7 healthy volunteers) | volunteers who had sexual intercourse, and pregnancy was confirmed ([3]; 1 g oral, among the volunteers with erectile)
NCC(=O)CCC(=O)O.O=P(O)(O)O [ALA phosphate, δ-amino levulinic acid phosphate] | 17 out of 19 | 94.4% | significant high level | significant high level |  |  |  | 
Cl.NCC(=O)CCC(=O)O [ALA hydrochloride, δ-amino levulinic acid hydrochloride] |  |  |  |  | pregnant; also recorded: No sexual intercourse; also recorded: No sexual intercourse, | Δ (when no change is observed by (Δ)) | 5 out of 7 | 2
